Legend:
[1] = test system: recombinant human anti-SARS-CoV antibody 03-018; type: binding; set-up: Binding of antibody 03-018 to linear peptides of the N protein of SARS-CoV Urbani / Binding of antibody 03-018 to looped/cyclic peptides of the N protein of SARS-CoV Urbani: unit not given here
[2] = test system: antibodies in sera from SARS patients (sera 1a, 1b, 2, 6, 37, 62, London, SARS-yellow, SARS-green); type: binding, human; set-up: Binding of serum 6 to linear peptides of protein X1 of SARS-CoV Urbani / Binding of serum 37 to linear peptides of protein X1 of SARS-CoV Urbani / Binding of serum 6 to looped/cyclic peptide (PEPSCAN-ELISA) / Binding of serum 37 to looped/cyclic peptide (PEPSCAN-ELISA) / Binding of serum 37 to looped/cyclic peptides of protein X1 of SARS-CoV Urbani / Binding of serum 6 to linear peptides of protein X2 / Binding of serum 37 to linear peptides of protein X2 / Binding of serum 37 to looped/cyclic peptides of protein X2 of SARS-CoV Urbani / Binding of serum 6 to linear peptides of protein M of SARS-CoV Urbani / Binding of serum 37 to linear peptides of protein M of SARS-CoV Urbani / Binding of serum 6 to looped/cyclic peptides of protein M of SARS-CoV Urbani / Binding of serum 37 to looped/cyclic peptides of protein M of SARS-CoV Urbani / Binding of serum 6 to linear peptides of protein X3 of SARS-CoV Urbani / Binding of serum 37 to linear peptides of protein X3 of SARS-CoV Urbani / Binding of serum 37 to looped/cyclic peptides of protein X3 of SARS-CoV Urbani / Binding of serum 6 to linear peptides of protein X4 of SARS-CoV Urbani / Binding of serum 37 to linear peptides of protein X4 of SARS-CoV Urbani / Binding of serum 37 to looped/cyclic peptides of protein X4 of SARS-CoV Urbani / Binding of serum 6 to linear peptides of protein X5 of SARS-CoV Urbani / Binding of serum 37 to linear peptides of protein X5 of SARS-CoV Urbani / Binding of serum 37 to looped/cyclic peptides of protein X5 of SARS-CoV Urbani / Binding of serum 6 to linear peptides of protein N of SARS-CoV Urbani / Binding of serum 37 to linear peptides of protein N of SARS-CoV Urbani / Binding of serum 6 to linear peptide (PEPSCAN-ELISA) / Binding of serum 1a to looped/cyclic peptides of protein N of SARS-CoV Urbani / Binding of serum 1b to looped/cyclic peptides of protein N of SARS-CoV Urbani / Binding of serum 2 to looped/cyclic peptides of protein N of SARS-CoV Urbani / Binding of serum 6 to looped/cyclic peptides of protein N of SARS-CoV Urbani / Binding of serum 37 to looped/cyclic peptides of protein N of SARS-CoV Urbani / Binding of serum 62 to looped/cyclic peptides of protein N of SARS-CoV Urbani / Binding of serum London to looped/cyclic peptides of protein N of SARS-CoV Urbani / Binding of serum SARS-green to looped/cyclic peptides of protein N of SARS-CoV Urbani: unit not given here
[3] = test system: control sera (pooled serum of ten healthy LUMC hospital workers; commercial negative donor pooled serum from the Dutch bloodbank); type: binding, human; set-up: Binding of Control serum LUMC to linear peptides / Binding of Control serum Blood-bank to linear peptides / Binding of Control serum LUMC to looped peptides / Binding of Control Serum Blood-Bank to Looped peptides / Binding of Control serum LUMC to linear peptides of the protein M of SARS-CoV Urbani / Binding of Control serum Blood-bank to linear peptides of the protein M of SARS-CoV Urbani / Binding of Control serum LUMC to looped peptides of the protein M of SARS-CoV Urbani / Binding of Control Serum Blood-Bank to Looped peptides of the protein M of SARS-CoV Urbani: unit not given here
[4] = test system: rabbit serum obtained by immunizing a rabbit with the SARS-CoV strain Frankfurt 1; type: binding; set-up: Binding of a rabbit serum to linear peptides / Binding of a rabbit serum to looped peptides / Rabbit serum linear peptides / Rabbit serum looped peptides / Binding of a rabbit serum to linear peptides of protein N of SARS-CoV Urbani (Rabbit serum linear peptides) / Binding of a rabbit serum to looped/cyclic peptides of protein N of SARS-CoV Urbani (Rabbit serum looped peptides): unit not given here

Sequence: KDHIGTRNPNNNAAT
- Binding of antibody 03-018 to linear peptides of the N protein of SARS-CoV Urbani [1]: 0.1
- Binding of antibody 03-018 to looped/cyclic peptides of the N protein of SARS-CoV Urbani [1]: 0.2
- Binding of serum 1a to linear peptides of protein N of SARS-CoV Urbani [2]: 0.3
- Binding of serum 1a to looped/cyclic peptides of protein N of SARS-CoV Urbani [2]: 0.4
- Binding of serum 1b to linear peptides of protein N of SARS-CoV Urbani [2]: 0.2
- Binding of serum 1b to looped/cyclic peptides of protein N of SARS-CoV Urbani [2]: 0.3
- Binding of serum 2 to linear peptides of protein N of SARS-CoV Urbani [2]: 0.4
- Binding of serum 2 to looped/cyclic peptides of protein N of SARS-CoV Urbani [2]: 0.5
- Binding of serum 6 to linear peptides of protein N of SARS-CoV Urbani [2]: 0.3
- Binding of serum 6 to looped/cyclic peptides of protein N of SARS-CoV Urbani [2]: 0.4
- Binding of serum 37 to linear peptides of protein N of SARS-CoV Urbani [2]: 0.9
- Binding of serum 37 to looped/cyclic peptides of protein N of SARS-CoV Urbani [2]: 0.5
- Binding of serum 62 to linear peptides of protein N of SARS-CoV Urbani [2]: 0.8
- Binding of serum 62 to looped/cyclic peptides of protein N of SARS-CoV Urbani [2]: 0.4
- Binding of serum London to linear peptides of protein N of SARS-CoV Urbani [2]: 0.5
- Binding of serum London to looped/cyclic peptides of protein N of SARS-CoV Urbani [2]: 0.4
- Binding of serum SARS-green to linear peptides of protein N of SARS-CoV Urbani [2]: 0.5
- Binding of serum SARS-green to looped/cyclic peptides of protein N of SARS-CoV Urbani [2]: 0.1
- Binding of serum SARS-yellow to linear peptides of protein N of SARS-CoV Urbani [2]: 0.8
- Binding of serum SARS-yellow to looped/cyclic peptides of protein N of SARS-CoV Urbani [2]: 0.3
- Binding of Control Serum Blood-Bank to Looped peptides [3]: 0.6
- Binding of Control serum Blood-bank to linear peptides [3]: 0.9
- Binding of Control serum LUMC to linear peptides [3]: 0.8
- Binding of Control serum LUMC to looped peptides [3]: 0.6
- Binding of a rabbit serum to linear peptides of protein N of SARS-CoV Urbani (Rabbit serum linear peptides) [4]: 0.1
- Binding of a rabbit serum to looped/cyclic peptides of protein N of SARS-CoV Urbani (Rabbit serum looped peptides) [4]: 0.2

Sequence: KDKKKKTDEAQPLPQ
- Binding of antibody 03-018 to linear peptides of the N protein of SARS-CoV Urbani [1]: 0.1
- Binding of antibody 03-018 to looped/cyclic peptides of the N protein of SARS-CoV Urbani [1]: 0.2
- Binding of serum 1a to linear peptides of protein N of SARS-CoV Urbani [2]: 0.2
- Binding of serum 1a to looped/cyclic peptides of protein N of SARS-CoV Urbani [2]: 0.2
- Binding of serum 1b to linear peptides of protein N of SARS-CoV Urbani [2]: 0.1
- Binding of serum 1b to looped/cyclic peptides of protein N of SARS-CoV Urbani [2]: 0.1
- Binding of serum 2 to linear peptides of protein N of SARS-CoV Urbani [2]: 0.2
- Binding of serum 2 to looped/cyclic peptides of protein N of SARS-CoV Urbani [2]: 0.2
- Binding of serum 6 to linear peptides of protein N of SARS-CoV Urbani [2]: 0.2
- Binding of serum 6 to looped/cyclic peptides of protein N of SARS-CoV Urbani [2]: 0.2
- Binding of serum 37 to linear peptides of protein N of SARS-CoV Urbani [2]: 0.7
- Binding of serum 37 to looped/cyclic peptides of protein N of SARS-CoV Urbani [2]: 0.4
- Binding of serum 62 to linear peptides of protein N of SARS-CoV Urbani [2]: 0.6
- Binding of serum 62 to looped/cyclic peptides of protein N of SARS-CoV Urbani [2]: 0.3
- Binding of serum London to linear peptides of protein N of SARS-CoV Urbani [2]: 0.6
- Binding of serum London to looped/cyclic peptides of protein N of SARS-CoV Urbani [2]: 0.4
- Binding of serum SARS-green to linear peptides of protein N of SARS-CoV Urbani [2]: 0.5
- Binding of serum SARS-green to looped/cyclic peptides of protein N of SARS-CoV Urbani [2]: 0.1
- Binding of serum SARS-yellow to linear peptides of protein N of SARS-CoV Urbani [2]: 0.5
- Binding of serum SARS-yellow to looped/cyclic peptides of protein N of SARS-CoV Urbani [2]: 0.1
- Control Serum Blood-Bank Looped peptides [3]: 0.5
- Control serum Blood-bank linear peptides [3]: 0.6
- Control serum LUMC linear peptides [3]: 0.6
- Control serum LUMC looped peptides [3]: 0.4
- Binding of a rabbit serum to linear peptides of protein N of SARS-CoV Urbani (Rabbit serum linear peptides) [4]: 0.1
- Binding of a rabbit serum to looped/cyclic peptides of protein N of SARS-CoV Urbani (Rabbit serum looped peptides) [4]: 0.0

Sequence: KDNVILLNKHIDAYK
- Binding of antibody 03-018 to linear peptides of the N protein of SARS-CoV Urbani [1]: 0.1
- Binding of antibody 03-018 to looped/cyclic peptides of the N protein of SARS-CoV Urbani [1]: 0.2
- Binding of serum 1a to linear peptides of protein N of SARS-CoV Urbani [2]: 0.3
- Binding of serum 1a to looped/cyclic peptides of protein N of SARS-CoV Urbani [2]: 0.3
- Binding of serum 1b to linear peptides of protein N of SARS-CoV Urbani [2]: 0.2
- Binding of serum 1b to looped/cyclic peptides of protein N of SARS-CoV Urbani [2]: 0.2
- Binding of serum 2 to linear peptides of protein N of SARS-CoV Urbani [2]: 0.3
- Binding of serum 2 to looped/cyclic peptides of protein N of SARS-CoV Urbani [2]: 0.2
- Binding of serum 6 to linear peptides of protein N of SARS-CoV Urbani [2]: 0.3
- Binding of serum 6 to looped/cyclic peptides of protein N of SARS-CoV Urbani [2]: 0.1
- Binding of serum 37 to linear peptides of protein N of SARS-CoV Urbani [2]: 0.7
- Binding of serum 37 to looped/cyclic peptides of protein N of SARS-CoV Urbani [2]: 0.4
- Binding of serum 62 to linear peptides of protein N of SARS-CoV Urbani [2]: 0.8
- Binding of serum 62 to looped/cyclic peptides of protein N of SARS-CoV Urbani [2]: 0.3
- Binding of serum London to linear peptides of protein N of SARS-CoV Urbani [2]: 0.6
- Binding of serum London to looped/cyclic peptides of protein N of SARS-CoV Urbani [2]: 0.3
- Binding of serum SARS-green to linear peptides of protein N of SARS-CoV Urbani [2]: 0.4
- Binding of serum SARS-green to looped/cyclic peptides of protein N of SARS-CoV Urbani [2]: 0.1
- Binding of serum SARS-yellow to linear peptides of protein N of SARS-CoV Urbani [2]: 0.8
- Binding of serum SARS-yellow to looped/cyclic peptides of protein N of SARS-CoV Urbani [2]: 0.4
- Control Serum Blood-Bank Looped peptides [3]: 0.5
- Control serum Blood-bank linear peptides [3]: 0.8
- Control serum LUMC linear peptides [3]: 0.7
- Control serum LUMC looped peptides [3]: 0.5
- Binding of a rabbit serum to linear peptides of protein N of SARS-CoV Urbani (Rabbit serum linear peptides) [4]: 0.2
- Binding of a rabbit serum to looped/cyclic peptides of protein N of SARS-CoV Urbani (Rabbit serum looped peptides) [4]: 0.4

— patent US20070128217A1 (priority 2003, published 2007)
